Results published in PubChem BioAssay AID1963833 (Molecular Pharmacology Branch, DTP, NCI, 2024).

Test system: 883617-216-R-J1-PDC complex spheroid viability
Assay: Anticancer human tumor 883617-216-R-J1-PDC patient-derived bladder carcinoma cell line growth inhibition [POLQ]
Conditions: for IC50: curve of first compound; for viability, T/C: stronger effect = lower value
In short: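 Complex spheroid viability model combining PDC tumour cells with endothelial (HUVEC) and MSC stromal cells. Novobiocin, ART-558 or RP6685 were tested singly and in combination with standard and investigational anticancer drugs. Each was titrated in half-log steps from near clinical Cmax, or from 10 microM where Cmax was unknown.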

[1] = second compound 0.0316 µM, first compound 0.0316 µM
[2] = second compound 0.0316 µM, first compound 0.1 µM
[3] = second compound 0.0316 µM, first compound 0.316 µM
[4] = second compound 0.0316 µM, first compound 1 µM
[5] = second compound 0.0316 µM, first compound 3.16 µM
[6] = second compound 0.0316 µM, first compound 10 µM
[7] = second compound 0.1 µM, first compound 0.0316 µM
[8] = second compound 0.1 µM, first compound 0.1 µM
[9] = second compound 0.1 µM, first compound 0.316 µM
[10] = second compound 0.1 µM, first compound 1 µM
[11] = second compound 0.1 µM, first compound 3.16 µM
[12] = second compound 0.1 µM, first compound 10 µM
[13] = second compound 0.316 µM, first compound 0.0316 µM
[14] = second compound 0.316 µM, first compound 0.1 µM
[15] = second compound 0.316 µM, first compound 0.316 µM
[16] = second compound 0.316 µM, first compound 1 µM
[17] = second compound 0.316 µM, first compound 3.16 µM
[18] = second compound 0.316 µM, first compound 10 µM
[19] = second compound 1 µM, first compound 0.0316 µM
[20] = second compound 1 µM, first compound 0.1 µM
[21] = second compound 1 µM, first compound 0.316 µM
[22] = second compound 1 µM, first compound 1 µM
[23] = second compound 1 µM, first compound 3.16 µM
[24] = second compound 1 µM, first compound 10 µM
[25] = second compound 3.16 µM, first compound 0.0316 µM
[26] = second compound 3.16 µM, first compound 0.1 µM
[27] = second compound 3.16 µM, first compound 0.316 µM
[28] = second compound 3.16 µM, first compound 1 µM
[29] = second compound 3.16 µM, first compound 3.16 µM
[30] = second compound 3.16 µM, first compound 10 µM
[31] = second compound 10 µM, first compound 0.0316 µM
[32] = second compound 10 µM, first compound 0.1 µM
[33] = second compound 10 µM, first compound 0.316 µM
[34] = second compound 10 µM, first compound 1 µM
[35] = second compound 10 µM, first compound 3.16 µM
[36] = second compound 10 µM, first compound 10 µM
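Note: spheroids exposed to compounds for seven days before readout.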
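Throughout, for viability, T/C: 100% = DMSO vehicle control viability.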

## Nc1ccn(C2OC(CO)C(O)C2(F)F)c(=O)n1 (centres undefined) + Nc1ccc(C#CCN(C(=O)Cc2ncc(C(F)(F)F)cc2C(F)(F)F)c2ccc(F)cc2)nn1
Second compound 0.0316 µM
  IC50: < 0.0316 µM
Second compound 0.1 µM
  IC50: < 0.0316 µM
Second compound 0.316 µM
  IC50: < 0.0316 µM
Second compound 1 µM
  IC50: < 0.0316 µM
Second compound 3.16 µM
  IC50: < 0.0316 µM
Second compound 10 µM
  IC50: < 0.0316 µM
[1]
  viability, T/C: 33.7%
[2]
  viability, T/C: 33.4%
[3]
  viability, T/C: 39.8%
[4]
  viability, T/C: 33.9%
[5]
  viability, T/C: 56%
[6]
  viability, T/C: 37.3%
[7]
  viability, T/C: 34.5%
[8]
  viability, T/C: 35.1%
[9]
  viability, T/C: 38.2%
[10]
  viability, T/C: 32.4%
[11]
  viability, T/C: 37.5%
[12]
  viability, T/C: 47.1%
[13]
  viability, T/C: 32.5%
[14]
  viability, T/C: 38.7%
[15]
  viability, T/C: 39.3%
[16]
  viability, T/C: 35.9%
[17]
  viability, T/C: 35.1%
[18]
  viability, T/C: 34.3%
[19]
  viability, T/C: 43.1%
[20]
  viability, T/C: 39.9%
[21]
  viability, T/C: 45.2%
[22]
  viability, T/C: 39.8%
[23]
  viability, T/C: 43.3%
[24]
  viability, T/C: 37.6%
[25]
  viability, T/C: 44.7%
[26]
  viability, T/C: 34.4%
[27]
  viability, T/C: 35.4%
[28]
  viability, T/C: 60.7%
[29]
  viability, T/C: 46.2%
[30]
  viability, T/C: 35.6%
[31]
  viability, T/C: 62.4%
[32]
  viability, T/C: 28.1%
[33]
  viability, T/C: 34.5%
[34]
  viability, T/C: 47.7%
[35]
  viability, T/C: 50.4%
[36]
  viability, T/C: 37.6%

## O=C(c1cc(Cc2n[nH]c(=O)c3ccccc23)ccc1F)N1CCN(C(=O)C2CC2)CC1 + Nc1ccc(C#CCN(C(=O)Cc2ncc(C(F)(F)F)cc2C(F)(F)F)c2ccc(F)cc2)nn1
Second compound 0.0316 µM
  IC50: > 10 µM
Second compound 0.1 µM
  IC50: > 10 µM
Second compound 0.316 µM
  IC50: > 10 µM
Second compound 1 µM
  IC50: > 10 µM
Second compound 3.16 µM
  IC50: > 10 µM
Second compound 10 µM
  IC50: > 10 µM
[1]
  viability, T/C: 90%
[2]
  viability, T/C: 105%
[3]
  viability, T/C: 83.3%
[4]
  viability, T/C: 89.8%
[5]
  viability, T/C: 90.3%
[6]
  viability, T/C: 67.8%
[7]
  viability, T/C: 92.8%
[8]
  viability, T/C: 109%
[9]
  viability, T/C: 92.7%
[10]
  viability, T/C: 97.5%
[11]
  viability, T/C: 95.4%
[12]
  viability, T/C: 86.4%
[13]
  viability, T/C: 97.9%
[14]
  viability, T/C: 109%
[15]
  viability, T/C: 100%
[16]
  viability, T/C: 89.1%
[17]
  viability, T/C: 75.7%
[18]
  viability, T/C: 87.9%
[19]
  viability, T/C: 100%
[20]
  viability, T/C: 86.8%
[21]
  viability, T/C: 99.3%
[22]
  viability, T/C: 104%
[23]
  viability, T/C: 84.8%
[24]
  viability, T/C: 95.3%
[25]
  viability, T/C: 90%
[26]
  viability, T/C: 99.5%
[27]
  viability, T/C: 92.2%
[28]
  viability, T/C: 91.3%
[29]
  viability, T/C: 81.2%
[30]
  viability, T/C: 73%
[31]
  viability, T/C: 97%
[32]
  viability, T/C: 103%
[33]
  viability, T/C: 100%
[34]
  viability, T/C: 93.1%
[35]
  viability, T/C: 94.2%
[36]
  viability, T/C: 73%
